Where “and” joins values, the source holds several entries; their conditions need not be identical. Equal entries are not always repeated. Where two headings read alike, the source gives them in different places.

As usually defined, the IC50 is the concentration at which inhibition is half-maximal. Low values mean greater potency, high ones weaker potency. For orientation: Km means the substrate concentration at which the rate is half of its maximum.

The target in data set [1] is HCoV-HKU1 nsp10-nsp16 complex (Human coronavirus HKU1, UniProt P0C6X3). Kind of data set: biochemical.
HCoV-HKU1 nsp10-nsp16 complex, sequence (P0C6X3 6854-7152 limits assumed): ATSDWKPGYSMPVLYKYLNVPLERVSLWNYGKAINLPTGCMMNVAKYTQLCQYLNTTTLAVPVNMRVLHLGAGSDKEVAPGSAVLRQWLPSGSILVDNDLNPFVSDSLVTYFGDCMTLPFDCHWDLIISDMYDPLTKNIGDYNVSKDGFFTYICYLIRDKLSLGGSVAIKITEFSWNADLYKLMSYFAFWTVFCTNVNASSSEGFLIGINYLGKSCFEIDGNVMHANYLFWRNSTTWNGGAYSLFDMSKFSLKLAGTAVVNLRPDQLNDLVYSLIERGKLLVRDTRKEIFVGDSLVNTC
HCoV-HKU1 nsp10-nsp16 complex, sequence (P0C6X3 4291-4427 partner limits assumed): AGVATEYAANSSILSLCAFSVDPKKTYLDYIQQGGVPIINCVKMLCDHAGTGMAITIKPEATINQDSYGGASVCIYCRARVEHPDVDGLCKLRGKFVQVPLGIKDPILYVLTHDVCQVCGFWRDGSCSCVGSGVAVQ
Data set [2] has as its target HCoV-229E nsp10-nsp16 complex (Human coronavirus 229E, UniProt P0C6X1). Kind of data set: biochemical.
In data set [3] the target is SARS-CoV-2 nsp10-nsp16 complex (Severe acute respiratory syndrome coronavirus 2, UniProt P0DTD1). Nature of the data set: biochemical.
The target in data set [4] is HCoV-NL63 nsp10-nsp16 complex (Human coronavirus NL63, UniProt P0C6X5). Kind of data set: biochemical. In kind it is biochemical.
HCoV-NL63 nsp10-nsp16 complex, sequence (P0C6X5 6430-6729 limits assumed): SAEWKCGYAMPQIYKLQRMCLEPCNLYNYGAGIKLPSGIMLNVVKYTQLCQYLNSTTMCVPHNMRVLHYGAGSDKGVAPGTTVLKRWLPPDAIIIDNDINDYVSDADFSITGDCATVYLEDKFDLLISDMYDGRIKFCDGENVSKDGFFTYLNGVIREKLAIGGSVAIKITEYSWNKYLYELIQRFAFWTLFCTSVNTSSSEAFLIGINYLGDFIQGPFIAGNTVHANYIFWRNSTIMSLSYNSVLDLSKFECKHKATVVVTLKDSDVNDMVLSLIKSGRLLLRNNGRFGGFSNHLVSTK
HCoV-NL63 nsp10-nsp16 complex, sequence (P0C6X5 3909-4043 partner limits assumed): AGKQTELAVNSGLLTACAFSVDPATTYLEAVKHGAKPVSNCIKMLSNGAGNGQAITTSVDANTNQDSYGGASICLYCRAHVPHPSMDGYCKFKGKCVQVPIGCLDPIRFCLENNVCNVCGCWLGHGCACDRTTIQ
The target of data set [5] is HCoV-OC43 nsp10-nsp16 complex (Human coronavirus OC43, UniProt P0C6X6). Kind of data set: biochemical.
HCoV-OC43 nsp10-nsp16 complex, sequence (P0C6X6 6797-7095 limits assumed): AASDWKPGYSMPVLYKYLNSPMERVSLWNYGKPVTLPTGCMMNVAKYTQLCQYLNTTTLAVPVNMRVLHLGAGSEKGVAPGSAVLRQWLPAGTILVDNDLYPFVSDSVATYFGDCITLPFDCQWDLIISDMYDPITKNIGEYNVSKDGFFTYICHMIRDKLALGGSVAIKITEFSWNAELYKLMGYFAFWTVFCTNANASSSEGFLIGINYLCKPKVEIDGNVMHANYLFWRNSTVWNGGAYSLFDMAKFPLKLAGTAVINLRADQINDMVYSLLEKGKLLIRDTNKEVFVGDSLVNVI
HCoV-OC43 nsp10-nsp16 complex, sequence (P0C6X6 4233-4369 partner limits assumed): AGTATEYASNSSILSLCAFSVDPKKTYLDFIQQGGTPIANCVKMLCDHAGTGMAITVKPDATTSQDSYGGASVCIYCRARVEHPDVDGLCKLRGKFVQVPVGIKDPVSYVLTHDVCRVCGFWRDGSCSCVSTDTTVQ
Data set [6] has as its system C[S+](CC[C@H](N)C(=O)[O-])C[C@H]1O[C@@H](n2cnc3c(N)ncnc32)[C@H](O)[C@@H]1O. Nature of the data set: purified protein, by the assay type. The note with it: pH 7.5; 23.0 °C.

HCoV-229E nsp10-nsp16 complex, sequence (P0C6X1 6459-6758 limits assumed): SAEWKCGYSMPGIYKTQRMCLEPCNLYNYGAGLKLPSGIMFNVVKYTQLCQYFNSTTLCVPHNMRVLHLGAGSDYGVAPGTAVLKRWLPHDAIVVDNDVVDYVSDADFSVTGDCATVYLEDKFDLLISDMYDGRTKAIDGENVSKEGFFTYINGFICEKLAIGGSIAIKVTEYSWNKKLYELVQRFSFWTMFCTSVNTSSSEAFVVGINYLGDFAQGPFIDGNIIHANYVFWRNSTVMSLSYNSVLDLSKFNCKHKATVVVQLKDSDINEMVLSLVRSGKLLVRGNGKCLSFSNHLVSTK
HCoV-229E nsp10-nsp16 complex, sequence (P0C6X1 3934-4068 partner limits assumed): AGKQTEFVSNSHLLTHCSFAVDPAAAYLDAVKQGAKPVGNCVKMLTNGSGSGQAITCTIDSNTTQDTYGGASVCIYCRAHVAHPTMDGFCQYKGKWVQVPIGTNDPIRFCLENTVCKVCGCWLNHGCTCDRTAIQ

For `Nc1ncnc2c1ncn2[C@@H]1O[C@H](CSCC[C@H](N)C(=O)O)[C@@H](O)[C@H]1O` [SAH, S-adenosylhomocysteine], the half-inhibitory concentration (IC50) in data set [1] was 200 ± 50 nM; in data set [1] (IC50, HCoV-HKU1, substrate RNA N7mGpppACCCCC 0.3 μM, 2 μM 3H-SAM) it was 2100 ± 100 nM; in data set [2], 900 ± 200 nM; in data set [3], 2900 nM and 500 nM; in data set [4] (IC50, HCoV-NL63, substrate RNA N7mGpppACCCCC 0.3 μM, 2 μM 3H-SAM), 2400 ± 400 nM; in data set [5] it was 1400 ± 300 nM. This compound also had an IC50 in data set [5] (IC50, HCoV-OC43, substrate RNA N7mGpppACCCCC 0.3 μM, 2 μM 3H-SAM) of 4400 ± 1200 nM. Moreover, the “fold lower IC50 with N7mGpppAUUAAA versus N7mGpppACCCCC” value in data set [4] (HCoV-NL63) is 30 fold.

For the compound “HCoV-229E nsp10-nsp16 complex (Human coronavirus 229E)”, the Km in data set [6] amounted to 1.8 ± 0.2 µM.

Take “HCoV-HKU1 nsp10-nsp16 complex (Human coronavirus HKU1 (isolate N2))”: the Km in data set [6] is 4.8 ± 1.2 µM and 2.3 ± 0.03 µM.

For “HCoV-OC43 nsp10-nsp16 complex (Human coronavirus OC43)”, in data set [6], the Km was 7.1 ± 0.8 µM and 2.9 ± 0.4 µM.

Consider “SARS-CoV nsp10-nsp16 complex (Severe acute respiratory syndrome-related coronavirus)”, for which the Michaelis-Menten constant (Km) in data set [6] is 5.7 ± 1.1 µM and 2.6 ± 0.4 µM.

With “SARS-CoV-2 nsp10-nsp16 complex (Severe acute respiratory syndrome coronavirus 2)”, in data set [6], the Km is 5.0 ± 0.7 µM and 2.8 ± 0.4 µM.

These data come from PMC9908617 (Biochimica et Biophysica Acta. General Subjects, 2023).
